Results taken from PMC9410420, “Novel Labdane Diterpenes-Based Synthetic Derivatives: Identification of a Bifunctional Vasodilator That Inhibits CaV1.2 and Stimulates KCa1.1 Channels” (Marine Drugs, 2022).
Like-named read-outs stand apart in the source and are kept apart here.

Legend:
rat aorta rings = test: KCl-induced contraction of rat aorta rings (electromechanical coupling)
Method: The abdominal aorta was gently cleaned of adipose and connective tissues and cut into 3-mm wide rings. These were mounted in organ baths between two parallel, L-shaped, stainless-steel hooks, with one fixed in place and the other connected to an isometric transducer. Rings were allowed to equilibrate for 60 min in modified Krebs-Henseleit solution (composition in mM: 118 NaCl, 4.75 KCl, 1.19 KH2PO4, 1.19 MgSO4, 25 NaHCO3, 11.5 glucose, 2.5 CaCl2, gassed with a 95% O2–5% CO2 gas mixture to create a pH of 7.4) under a passive tension of 1 g. During this equilibration period, the solution was changed every 15 min. Isometric tension was recorded using a digital PowerLab data acquisition system (PowerLab 8/30; ADInstruments). Ring viability was assessed by recording the response to 0.3 µM phenylephrine and 60 mM KCl. Where needed, the endothelium was removed by gently rubbing the lumen of the ring with a forceps tip. This procedure was validated by adding 10 µM acetylcholine at the plateau of phenylephrine-induced contraction; a relaxation greater than 70% or less than 10% denoted the presence or absence of functional endothelium, respectively.
Aorta rings were pre-contracted pharmaco-mechanically using 0.3 µM phenylephrine and electromechanically using 25–30 mM or 60 mM KCl. Once the contraction reached a plateau, the compound was added cumulatively into the organ bath. […] The response was calculated as the percentage of phenylephrine- or KCl-induced contraction (taken as 100%).

KCa1.1 channel = biological target: T1, KCa1.1 channel (Rattus norvegicus, UniProt Q62976); test: Whole-cell patch-clamp, K+ current through KCa1.1 channels (IKCa1.1) in tail artery myocytes; assay type: cell-based; conditions: 3, 10 and 30 µM cumulative; membrane potential 30–70 mV, Vh −40 mV
T1 construct: IKCa1.1 measured in tail artery myocytes; endogenous in cells; host or cells: freshly isolated rat tail main artery smooth muscle cells
Method: The tail main artery was dissected free of its connective tissue, and smooth muscle cells were freshly isolated under the following conditions. […] This solution was gently bubbled and stirred with a 95% O2–5% CO2 gas mixture, as previously described. Cells stored in 0.05 mM Ca^2+ external solution containing 20 mM taurine and 0.5 mg/mL BSA at 4 °C under normal air were used for experiments within two days after isolation.
An Axopatch 200B patch-clamp amplifier (Molecular Devices Corporation, Sunnyvale, CA, USA) was used to generate and apply voltage pulses to the clamped cells and record the corresponding membrane currents. Recording electrodes were pulled from borosilicate glass capillaries (WPI, Berlin, Germany) and fire-polished to obtain a pipette resistance of 2–4 MΩ, when filled with an internal solution. At the beginning of each experiment, the junction potential between the pipette and bath solution was electronically adjusted to zero. […]
K^+ current through the KCa1.1 channel (IKCa1.1) (registration period 500 ms) was measured over a range of test potentials, from −20 mV to 70 mV from a Vh of −40 mV. […] The current–voltage relationships were calculated based on the values recorded during each test pulse (leakage corrected offline). […]

[1] = tested on: Langendorff perfused rat heart; test: Langendorff perfused rat heart (LVP, CPP, ECG); conditions: for QRS (intraventricular conduction time): control 13.4 ± 0.7; for PQ (atrioventricular conduction time): control 37.8 ± 1.8; for QTc (corrected QT): control 72.97 ± 1.7; for RR (cycle length): control 231.4 ± 7.8; for HR (frequency): control 261.9 ± 9.6
Method: Spontaneously beating heart was retrogradely perfused via the aorta at a constant perfusion flow in a Langendorff apparatus (Radnoti, Dublin, Ireland) with a physiological salt solution containing (mM) NaCl 118, KCl 4.7, CaCl2 2.5, MgSO4 1.2, NaHCO3 25, KH2PO4 1.2, glucose 11.5, Na pyruvate 2, and EDTA 0.5, and bubbled with a 95% O2−5% CO2 gas mixture (pH 7.4), and kept at 37 °C, as described elsewhere. Hearts were allowed to equilibrate for at least 20 min before 7 exposure. Heart contractility was measured as left ventricle developed pressure (LVDP) using a deionized water-filled latex balloon, connected to a pressure transducer (BLPR, WPI, Berlin, Germany) and inserted into the left ventricular cavity through the mitral valve. A pressure transducer (BLPR, WPI, Berlin, Germany) was placed in the inflow line, to record coronary perfusion pressure (CPP), a measure of coronary vascular resistance. Two steel electrodes, one positioned on the left atrium and the other on the apex of the heart, were used to record the surface electrocardiogram. Heart rate (HR) and RR (cycle length), PQ (atrioventricular conduction time), QRS (intraventricular conduction time), and QT (ventricular depolarization and repolarization) intervals were measured. The digital PowerLab data acquisition system (PowerLab 8/30; ADInstruments, Castle Hill, Australia) and Chart Pro for Windows software v. 7.3.7 (PowerLab; ADInstruments, Castle Hill, Australia) were used to record and analyze LVP, CPP, and ECG. As the QT interval is affected by HR changes (e.g., it shortens when HR increases), Bazett's formula normalized to average rat RR (QTc = QT/(RR/f)1/2) was routinely used to correct it, thus avoiding confounding effects. In this study, “f” (the normalization factor according to the basal RR duration) was 231.4 ms, as this was the average cardiac cycle length.

T1 sequence (Q62976 whole entry): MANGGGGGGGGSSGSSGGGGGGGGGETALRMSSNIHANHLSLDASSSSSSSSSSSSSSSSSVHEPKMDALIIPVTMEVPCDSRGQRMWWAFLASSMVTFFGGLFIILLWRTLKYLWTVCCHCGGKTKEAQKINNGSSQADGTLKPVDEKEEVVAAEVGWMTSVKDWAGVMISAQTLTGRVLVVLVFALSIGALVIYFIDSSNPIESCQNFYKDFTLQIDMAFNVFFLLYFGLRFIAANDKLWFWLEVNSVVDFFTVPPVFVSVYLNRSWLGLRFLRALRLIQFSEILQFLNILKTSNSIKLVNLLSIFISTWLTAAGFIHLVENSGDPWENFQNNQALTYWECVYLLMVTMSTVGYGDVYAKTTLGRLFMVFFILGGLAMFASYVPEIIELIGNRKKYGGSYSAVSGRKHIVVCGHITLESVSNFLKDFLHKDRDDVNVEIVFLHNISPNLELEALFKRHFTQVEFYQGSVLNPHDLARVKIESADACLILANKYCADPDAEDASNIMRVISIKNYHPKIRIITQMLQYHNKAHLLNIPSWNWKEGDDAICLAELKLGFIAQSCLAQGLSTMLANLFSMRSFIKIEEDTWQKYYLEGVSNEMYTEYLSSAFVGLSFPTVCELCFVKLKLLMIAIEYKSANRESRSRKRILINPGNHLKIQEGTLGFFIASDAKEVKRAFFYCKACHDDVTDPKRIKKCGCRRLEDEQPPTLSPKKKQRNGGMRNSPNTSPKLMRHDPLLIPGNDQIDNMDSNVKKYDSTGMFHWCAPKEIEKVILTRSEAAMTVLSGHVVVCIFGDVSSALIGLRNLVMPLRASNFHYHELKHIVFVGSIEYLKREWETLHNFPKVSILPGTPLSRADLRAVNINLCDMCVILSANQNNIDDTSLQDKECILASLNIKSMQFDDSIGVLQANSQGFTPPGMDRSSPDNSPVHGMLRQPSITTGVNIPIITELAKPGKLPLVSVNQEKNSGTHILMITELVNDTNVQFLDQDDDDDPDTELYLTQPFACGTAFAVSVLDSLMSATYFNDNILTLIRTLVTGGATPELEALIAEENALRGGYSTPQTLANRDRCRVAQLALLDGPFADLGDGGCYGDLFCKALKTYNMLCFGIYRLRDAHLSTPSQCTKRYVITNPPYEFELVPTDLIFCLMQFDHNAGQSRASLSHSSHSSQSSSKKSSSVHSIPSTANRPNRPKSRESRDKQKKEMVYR
T1 sequence (P97678 whole entry partner): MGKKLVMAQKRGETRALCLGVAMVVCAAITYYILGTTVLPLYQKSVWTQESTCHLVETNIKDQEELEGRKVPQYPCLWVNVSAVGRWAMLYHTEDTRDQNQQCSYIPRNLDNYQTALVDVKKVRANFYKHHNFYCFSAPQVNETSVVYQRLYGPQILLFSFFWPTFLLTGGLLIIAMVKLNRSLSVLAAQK

IC50 (rat aorta rings; endothelium-denuded rat aorta rings pre-contracted by 25 mM KCl, read-out: IC50, KCl 25 mM-induced contraction): 0.2 ± 0.1 µM
IC50 (rat aorta rings; endothelium-denuded rat aorta rings pre-contracted by 60 mM KCl, read-out: IC50, KCl 60 mM-induced contraction): 9.3 ± 2 µM
Compound: CC1(C)CCC[C@]2(C)[C@@H](CC(=O)Nc3ccccc3-n3cccc3)[C@](C)(O)CC[C@@H]12 [Compound 7]
Emax (rat aorta rings; endothelium-denuded rat aorta rings pre-contracted by 25 mM KCl, read-out: Emax (percent maximal inhibition), KCl 25 mM-induced contraction): 94.3 ± 4.5%
Emax (rat aorta rings; endothelium-denuded rat aorta rings pre-contracted by 60 mM KCl, read-out: Emax (percent maximal inhibition), KCl 60 mM-induced contraction): 89.7 ± 1.9%
Effect on IKCa1.1 (KCa1.1 channel): significant concentration-dependent stimulation of the current
QRS (intraventricular conduction time) ([1]; 1 µM): 13.6 ± 0.5 ms
PQ (atrioventricular conduction time) ([1]; 1 µM): 37.2 ± 2.0 ms
QTc (corrected QT) ([1]; 1 µM): 71.59 ± 0.8 ms
RR (cycle length) ([1]; 1 µM): 230.8 ± 7.4 ms
HR (frequency) ([1]; 1 µM): 261.8 ± 9.4 bpm
QRS (intraventricular conduction time) ([1]; 3 µM): 14.0 ± 0.6 ms
PQ (atrioventricular conduction time) ([1]; 3 µM): 37.4 ± 1.9 ms
QTc (corrected QT) ([1]; 3 µM): 72.65 ± 1.3 ms
RR (cycle length) ([1]; 3 µM): 231.8 ± 7.1 ms
HR (frequency) ([1]; 3 µM): 256.9 ± 8.3 bpm
QRS (intraventricular conduction time) ([1]; 10 µM): 13.9 ± 0.6 ms
PQ (atrioventricular conduction time) ([1]; 10 µM): 39.0 ± 1.9 ms
QTc (corrected QT) ([1]; 10 µM): 73.31 ± 1.2 ms
RR (cycle length) ([1]; 10 µM): 236.4 ± 7.1 ms
HR (frequency) ([1]; 10 µM): 255.3 ± 8.0 bpm
QRS (intraventricular conduction time) ([1]; 30 µM): 15.2 ± 0.8 ms
PQ (atrioventricular conduction time) ([1]; 30 µM): 42.2 ± 2.7 ms
QTc (corrected QT) ([1]; 30 µM): 75.13 ± 1.7 ms
RR (cycle length) ([1]; 30 µM): 249.8 ± 10.7 ms
HR (frequency) ([1]; 30 µM): 242.8 ± 11.5 bpm
Effect on coronary perfusion pressure (CPP) ([1]; 1–30 µM, n = 5): significantly decreased CPP
Effect on left ventricular pressure (LVP) ([1]; 1–30 µM, n = 5): leaving LVP unaltered
